From patent US6706740B2, “Fungicidal heterocyclic aromatic amides and their compositions, methods of use and preparation” (Dow AgroSciences LLC, priority 1999, dated 2004)

Test system: Magnaporthe grisea (Pyricularia oryzae—PYRIOR)
Experiment: microbe, parasite or virus in culture
Assay type: cell-based
Conditions: Pyricularia oryzae, read-out: PYRIOR in vitro Growth Inhibition
For `Cc1ncc(C(=O)N[C@H]2COC(=O)[C@H](Cc3ccccc3)[C@@H](OC(=O)C(C)C)[C@H](C)OC2=O)c(O)n1` [Compound 542], the inhibition at 25 ppm was less than 80%.
Molecule `COc1ccnc(C(=O)NC(C)c2ccc(Cl)cc2)c1O` (stereo not drawn) [Compound 246] has an inhibition at 25 ppm of less than 80%.
`COc1ccnc(C(=O)NC2COC(=O)[C@H]3CCCC[C@@H]3C(=O)OC2)c1O` [Compound 377] gave an inhibition at 25 ppm of less than 80%.
In the case of `CCOc1ccnc(C(=O)NC2CC(C)(C)CC(C)(C)C2)c1O` [Compound 474], the inhibition at 25 ppm was less than 80%.

Test system: Rhizoctonia solani (RHIZSO)
Experiment: microbe, parasite or virus in culture
Assay type: cell-based
Conditions: Rhizoctonia solani, read-out: RHIZSO in vitro Growth Inhibition
`Cc1ncc(C(=O)N[C@H]2COC(=O)[C@H](Cc3ccccc3)[C@@H](OC(=O)C(C)C)[C@H](C)OC2=O)c(O)n1` [Compound 542] gave an inhibition at 25 ppm of less than 80%.
`COc1ccnc(C(=O)NC(C)c2ccc(Cl)cc2)c1O` (stereo not drawn) [Compound 246] gave an inhibition at 25 ppm of less than 80%.
`COc1ccnc(C(=O)NC2COC(=O)[C@H]3CCCC[C@@H]3C(=O)OC2)c1O` [Compound 377] gave an inhibition at 25 ppm of less than 80%.
For `CCOc1ccnc(C(=O)NC2CC(C)(C)CC(C)(C)C2)c1O` [Compound 474], the inhibition at 25 ppm was less than 80%.

Test system: Mycosphaerella graminicola (Septoria tritici—SEPTTR)
Experiment: In vitro fungal growth inhibition, Mycosphaerella graminicola (SEPTTR)
Assay type: cell-based
Conditions: Zymoseptoria tritici; 25 ppm in growth medium; read-out: SEPTTR in vitro Growth Inhibition
Work on `COc1ccnc(C(=O)NC(C)c2ccc(Cl)cc2)c1O` (stereo not drawn) [Compound 246] yielded an inhibition at 25 ppm of less than 80%.
Molecule `COc1ccnc(C(=O)NC2COC(=O)[C@H]3CCCC[C@@H]3C(=O)OC2)c1O` [Compound 377] has an inhibition at 25 ppm of less than 80%.

Same assay, conditions: Zymoseptoria tritici; 25 ppm in the growth medium; read-out: SEPTTR in vitro Growth Inhibition
`Cc1ncc(C(=O)N[C@H]2COC(=O)[C@H](Cc3ccccc3)[C@@H](OC(=O)C(C)C)[C@H](C)OC2=O)c(O)n1` [Compound 542] gave an inhibition at 25 ppm of less than 80%.
`CCOc1ccnc(C(=O)NC2CC(C)(C)CC(C)(C)C2)c1O` [Compound 474] gave an inhibition at 25 ppm of less than 80%.

Test system: Stagonospora nodorum (Leptosphaeria nodorum—LEPTNO)
Experiment: In vitro fungal growth inhibition, Stagonospora nodorum (LEPTNO)
Assay type: cell-based
Conditions: Leptosphaeria; 25 ppm in growth medium; read-out: LEPTNO in vitro Growth Inhibition
In the case of `COc1ccnc(C(=O)NC(C)c2ccc(Cl)cc2)c1O` (stereo not drawn) [Compound 246], the inhibition at 25 ppm was less than 80%.
Molecule `COc1ccnc(C(=O)NC2COC(=O)[C@H]3CCCC[C@@H]3C(=O)OC2)c1O` [Compound 377] has an inhibition at 25 ppm of less than 80%.

Same assay, conditions: Leptosphaeria; 25 ppm in the growth medium; read-out: LEPTNO in vitro Growth Inhibition
`Cc1ncc(C(=O)N[C@H]2COC(=O)[C@H](Cc3ccccc3)[C@@H](OC(=O)C(C)C)[C@H](C)OC2=O)c(O)n1` [Compound 542] gave an inhibition at 25 ppm of less than 80%.
With `CCOc1ccnc(C(=O)NC2CC(C)(C)CC(C)(C)C2)c1O` [Compound 474] the inhibition at 25 ppm was less than 80%.

Test system: Ustilago maydis (USTIMA)
Experiment: microbe, parasite or virus in culture
Assay type: cell-based
Conditions: Mycosarcoma maydis, read-out: USTIMA in vitro Growth Inhibition
With `Cc1ncc(C(=O)N[C@H]2COC(=O)[C@H](Cc3ccccc3)[C@@H](OC(=O)C(C)C)[C@H](C)OC2=O)c(O)n1` [Compound 542] the inhibition at 25 ppm was less than 80%.
For `COc1ccnc(C(=O)NC(C)c2ccc(Cl)cc2)c1O` (stereo not drawn) [Compound 246], the inhibition at 25 ppm was less than 80%.
`COc1ccnc(C(=O)NC2COC(=O)[C@H]3CCCC[C@@H]3C(=O)OC2)c1O` [Compound 377] showed an inhibition at 25 ppm of less than 80%.
`CCOc1ccnc(C(=O)NC2CC(C)(C)CC(C)(C)C2)c1O` [Compound 474] gave an inhibition at 25 ppm of less than 80%.

Test system: Phytophthora infestans (PHYTIN)
Experiment: microbe, parasite or virus in culture
Assay type: cell-based
Conditions: Phytophthora infestans, read-out: PHYTIN in vitro Growth Inhibition
In the case of `Cc1ncc(C(=O)N[C@H]2COC(=O)[C@H](Cc3ccccc3)[C@@H](OC(=O)C(C)C)[C@H](C)OC2=O)c(O)n1` [Compound 542], the inhibition at 25 ppm was less than 80%.
`COc1ccnc(C(=O)NC(C)c2ccc(Cl)cc2)c1O` (stereo not drawn) [Compound 246] showed an inhibition at 25 ppm of less than 80%.
For `COc1ccnc(C(=O)NC2COC(=O)[C@H]3CCCC[C@@H]3C(=O)OC2)c1O` [Compound 377], the inhibition at 25 ppm was greater than 80%.
Molecule `CCOc1ccnc(C(=O)NC2CC(C)(C)CC(C)(C)C2)c1O` [Compound 474] has an inhibition at 25 ppm of less than 80%.

Test system: Phytophthora infestans—PHYTIN
Experiment: whole plant or invertebrate
Assay type: in vivo
Conditions: Phytophthora, in Solanum lycopersicum, 24 h, read-out: PHYTIN in vivo 1 Day Protectant
Molecule `Cc1ncc(C(=O)N[C@H]2COC(=O)[C@H](Cc3ccccc3)[C@@H](OC(=O)C(C)C)[C@H](C)OC2=O)c(O)n1` [Compound 542] has a pest or weed control at 100 ppm of less than 25%.
With `COc1ccnc(C(=O)NC(C)c2ccc(Cl)cc2)c1O` (stereo not drawn) [Compound 246] the pest or weed control at 100 ppm was less than 25%.
`COc1ccnc(C(=O)NC2COC(=O)[C@H]3CCCC[C@@H]3C(=O)OC2)c1O` [Compound 377] showed a pest or weed control at 100 ppm of less than 25%.
With `CCOc1ccnc(C(=O)NC2CC(C)(C)CC(C)(C)C2)c1O` [Compound 474] the pest or weed control at 100 ppm was less than 25%.

Test system: Puccinia recondita—PUCCRT
Experiment: Brown Rust of Wheat, in vivo whole plant, 24 Hour Protectant
Conditions: Puccinia; 100 ppm spray, 24 hour protectant, wheat; control of fungal infection vs untreated plants; read-out: PUCCRT in vivo 1 Day Protectant
In the case of `COc1ccnc(C(=O)NC(C)c2ccc(Cl)cc2)c1O` (stereo not drawn) [Compound 246], the pest or weed control at 100 ppm was less than 25%.

Same assay, conditions: Puccinia; 100 ppm spray, wheat, 24 hour protectant; control of fungal infection vs untreated plants; read-out: PUCCRT in vivo 1 Day Protectant
In the case of `COc1ccnc(C(=O)NC2COC(=O)[C@H]3CCCC[C@@H]3C(=O)OC2)c1O` [Compound 377], the pest or weed control at 100 ppm was less than 25%.

Same assay, conditions: Puccinia; wheat plants sprayed at 100 ppm, inoculated after 24 hours; control of fungal infection vs untreated plants; read-out: PUCCRT in vivo 1 Day Protectant
Work on `Cc1ncc(C(=O)N[C@H]2COC(=O)[C@H](Cc3ccccc3)[C@@H](OC(=O)C(C)C)[C@H](C)OC2=O)c(O)n1` [Compound 542] yielded a pest or weed control at 100 ppm of less than 25%.
Work on `CCOc1ccnc(C(=O)NC2CC(C)(C)CC(C)(C)C2)c1O` [Compound 474] yielded a pest or weed control at 100 ppm of 25 to 74%.

Test system: Erysiphe graminis—ERYSGT
Experiment: Powdery Mildew of Wheat, in vivo whole plant, 24 Hour Protectant
Conditions: Erysiphe; 100 ppm spray, 24 hour protectant, wheat; control of fungal infection vs untreated plants; read-out: ERYSGT in vivo 1 Day Protectant
Work on `COc1ccnc(C(=O)NC(C)c2ccc(Cl)cc2)c1O` (stereo not drawn) [Compound 246] yielded a pest or weed control at 100 ppm of 25 to 74%.

Same assay, conditions: Erysiphe; 100 ppm spray, wheat, 24 hour protectant; control of fungal infection vs untreated plants; read-out: ERYSGT in vivo 1 Day Protectant
Molecule `COc1ccnc(C(=O)NC2COC(=O)[C@H]3CCCC[C@@H]3C(=O)OC2)c1O` [Compound 377] has a pest or weed control at 100 ppm of less than 25%.

Same assay, conditions: Erysiphe; wheat plants sprayed at 100 ppm, inoculated after 24 hours; control of fungal infection vs untreated plants; read-out: ERYSGT in vivo 1 Day Protectant
In the case of `Cc1ncc(C(=O)N[C@H]2COC(=O)[C@H](Cc3ccccc3)[C@@H](OC(=O)C(C)C)[C@H](C)OC2=O)c(O)n1` [Compound 542], the pest or weed control at 100 ppm was less than 25%.
With `CCOc1ccnc(C(=O)NC2CC(C)(C)CC(C)(C)C2)c1O` [Compound 474] the pest or weed control at 100 ppm was less than 25%.

Test system: Septoria tritici—SEPTTR
Experiment: Leaf Blotch of Wheat, in vivo whole plant, 24 Hour Protectant
Conditions: Zymoseptoria tritici, 24 h, 100 ppm spray, 24 hour protectant, wheat; control of fungal infection vs untreated plants; read-out: SEPTTR in vivo 1 Day Protectant
`COc1ccnc(C(=O)NC(C)c2ccc(Cl)cc2)c1O` (stereo not drawn) [Compound 246] gave a pest or weed control at 100 ppm of 25 to 74%.

Same assay, conditions: Zymoseptoria tritici, 24 h, 100 ppm spray, wheat, 24 hour protectant; control of fungal infection vs untreated plants; read-out: SEPTTR in vivo 1 Day Protectant
With `COc1ccnc(C(=O)NC2COC(=O)[C@H]3CCCC[C@@H]3C(=O)OC2)c1O` [Compound 377] the pest or weed control at 100 ppm was less than 25%.

Same assay, conditions: Zymoseptoria tritici, 24 h, wheat plants sprayed at 100 ppm, inoculated after 24 hours; control of fungal infection vs untreated plants; read-out: SEPTTR in vivo 1 Day Protectant
`Cc1ncc(C(=O)N[C@H]2COC(=O)[C@H](Cc3ccccc3)[C@@H](OC(=O)C(C)C)[C@H](C)OC2=O)c(O)n1` [Compound 542] showed a pest or weed control at 100 ppm of 25 to 74%.
For `CCOc1ccnc(C(=O)NC2CC(C)(C)CC(C)(C)C2)c1O` [Compound 474], the pest or weed control at 100 ppm was less than 25%.

Test system: Leptosphaeria nodorum—LEPTNO
Experiment: Glume Blotch of Wheat, in vivo whole plant, 24 Hour Protectant
Conditions: 100 ppm spray, 24 hour protectant, wheat; control of fungal infection vs untreated plants
In the case of `COc1ccnc(C(=O)NC(C)c2ccc(Cl)cc2)c1O` (stereo not drawn) [Compound 246], the “LEPTNO in vivo 1 Day Protectant” value was “+ +”.

Same assay, conditions: Leptosphaeria; 100 ppm spray, wheat, 24 hour protectant; control of fungal infection vs untreated plants; read-out: LEPTNO in vivo 1 Day Protectant
In the case of `COc1ccnc(C(=O)NC2COC(=O)[C@H]3CCCC[C@@H]3C(=O)OC2)c1O` [Compound 377], the pest or weed control at 100 ppm was 25 to 74%.

Same assay, conditions: Leptosphaeria; wheat plants sprayed at 100 ppm, inoculated after 24 hours; control of fungal infection vs untreated plants; read-out: LEPTNO in vivo 1 Day Protectant
With `Cc1ncc(C(=O)N[C@H]2COC(=O)[C@H](Cc3ccccc3)[C@@H](OC(=O)C(C)C)[C@H](C)OC2=O)c(O)n1` [Compound 542] the pest or weed control at 100 ppm was less than 25%.
`CCOc1ccnc(C(=O)NC2CC(C)(C)CC(C)(C)C2)c1O` [Compound 474] gave a pest or weed control at 100 ppm of 25 to 74%.

Test system: not given
Experiment: not given
Conditions: not given
In the case of `Cc1ncc(C(=O)N[C@H]2COC(=O)[C@H](Cc3ccccc3)[C@@H](OC(=O)C(C)C)[C@H](C)OC2=O)c(O)n1` [Compound 542], the melting point was 220 °C (dec.).
Molecule `COc1ccnc(C(=O)NC(C)c2ccc(Cl)cc2)c1O` (stereo not drawn) [Compound 246] has a melting point of 140 to 142 °C.
With `COc1ccnc(C(=O)NC2COC(=O)[C@H]3CCCC[C@@H]3C(=O)OC2)c1O` [Compound 377] the melting point was 234 to 235 °C.
In the case of `CCOc1ccnc(C(=O)NC2CC(C)(C)CC(C)(C)C2)c1O` [Compound 474], the melting point was 107 to 110 °C.
